According to ChEMBL document CHEMBL1154257, “Prediction of telomerase inhibitory activity for acridinic derivatives based on chemical structure” (Eur J Med Chem, 2009):

target: Telomerase reverse transcriptase (Homo sapiens, UniProt O14746); assay: Inhibition of telomerase in human A2780 cells by TRAP assay; type: cell-based
Sequence (O14746 whole entry): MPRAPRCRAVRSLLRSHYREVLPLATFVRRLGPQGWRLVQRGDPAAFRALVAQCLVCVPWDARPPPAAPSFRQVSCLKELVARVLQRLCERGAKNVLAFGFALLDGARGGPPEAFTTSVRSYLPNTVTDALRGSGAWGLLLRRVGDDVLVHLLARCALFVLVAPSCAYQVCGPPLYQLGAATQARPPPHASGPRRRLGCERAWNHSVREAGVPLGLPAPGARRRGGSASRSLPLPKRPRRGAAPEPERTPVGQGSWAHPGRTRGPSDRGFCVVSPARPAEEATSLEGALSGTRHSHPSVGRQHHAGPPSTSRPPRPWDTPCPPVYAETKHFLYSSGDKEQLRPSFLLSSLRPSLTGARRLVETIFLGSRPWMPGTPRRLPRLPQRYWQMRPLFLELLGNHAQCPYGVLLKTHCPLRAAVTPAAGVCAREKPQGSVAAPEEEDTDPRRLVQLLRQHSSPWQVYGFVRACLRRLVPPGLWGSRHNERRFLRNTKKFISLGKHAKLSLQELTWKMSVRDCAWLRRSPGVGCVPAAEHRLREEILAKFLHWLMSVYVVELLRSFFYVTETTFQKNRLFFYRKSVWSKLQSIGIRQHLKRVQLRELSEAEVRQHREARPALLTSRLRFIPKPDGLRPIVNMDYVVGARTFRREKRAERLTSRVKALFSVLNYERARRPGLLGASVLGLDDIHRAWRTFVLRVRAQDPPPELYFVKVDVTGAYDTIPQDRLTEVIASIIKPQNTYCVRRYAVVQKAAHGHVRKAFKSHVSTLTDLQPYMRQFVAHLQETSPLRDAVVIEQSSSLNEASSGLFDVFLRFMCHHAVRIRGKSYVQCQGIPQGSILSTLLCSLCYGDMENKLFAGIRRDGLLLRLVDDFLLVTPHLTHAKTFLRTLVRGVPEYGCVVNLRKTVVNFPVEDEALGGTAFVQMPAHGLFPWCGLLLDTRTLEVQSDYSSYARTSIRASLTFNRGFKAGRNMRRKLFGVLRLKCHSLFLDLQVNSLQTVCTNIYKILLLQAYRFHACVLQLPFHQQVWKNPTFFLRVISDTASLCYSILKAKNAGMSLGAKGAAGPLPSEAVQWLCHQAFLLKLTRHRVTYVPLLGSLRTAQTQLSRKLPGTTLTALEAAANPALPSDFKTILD

Compound | IC50 [nM]
CC1(C)CC2CN(CCC(=O)Nc3ccc4cc5ccc(NC(=O)CCN6CC7CC(C)(C)CC(C)(C7)C6)cc5nc4c3)CC(C)(C2)C1 | > 50000
CN(C)CCC(=O)Nc1ccc2nc3ccc(NC(=O)CCN(C)C)cc3c(O)c2c1 | 600
O=C(CCN1CCCC1)Nc1ccc2c(=O)c3ccc(NC(=O)CCN4CCCC4)cc3[nH]c2c1 | 8100
O=C(CCN1CCCC1)Nc1ccc2c(Nc3ccccc3)c3cc(NC(=O)CCN4CCCC4)ccc3nc2c1 | 1330
CCC1CCCCN1CCC(=O)Nc1ccc2c(=O)c3ccc(NC(=O)CCN4CCCCC4CC)cc3[nH]c2c1 (stereo unspecified) | 2300
O=C(CCN1CCCC1)Nc1ccc2nc3ccc(NC(=O)CCN4CCCC4)cc3c(O)c2c1 | 5800
Nc1cccc(Nc2c3cc(NC(=O)CCN4CCCC4)ccc3nc3ccc(NC(=O)CCN4CCCC4)cc23)c1 | 1090
O=C(CCN1CCC(O)CC1)Nc1ccc2c(O)c3ccc(NC(=O)CCN4CCC(O)CC4)cc3nc2c1 | 1700
CC1CCCCN1CCC(=O)Nc1ccc2nc3ccc(NC(=O)CCN4CCCCC4C)cc3c(O)c2c1 (stereo unspecified) | 1500
CCN(CC)CCC(=O)Nc1ccc2c(=O)c3ccc(NC(=O)CCN(CC)CC)cc3[nH]c2c1 | 2700
O=C(CC[N+]1([O-])CCCCC1)Nc1ccc2c(=O)c3ccc(NC(=O)CC[N+]4([O-])CCCCC4)cc3[nH]c2c1 | 49000
O=C(CCN1CCCCC1)Nc1ccc2nc3ccc(NC(=O)CCN4CCCCC4)cc3c(O)c2c1 | 1900
CCN(CC)CCC(=O)Nc1ccc2c(O)c3cc(NC(=O)CCN(CC)CC)ccc3nc2c1 | 700
C[N+]1(CCC(=O)Nc2ccc3nc4ccc(NC(=O)CC[N+]5(C)CCNCC5)cc4c(O)c3c2)CCNCC1 | 1900
CC1CCN(CCC(=O)Nc2ccc3c(=O)c4ccc(NC(=O)CCN5CCC(C)CC5)cc4[nH]c3c2)CC1 | 1700
COc1cccc(Nc2c3cc(NC(=O)CCN4CCCC4)ccc3nc3ccc(NC(=O)CCN4CCCC4)cc23)c1 | 2730
CC1CCCCN1CCC(=O)Nc1ccc2c(=O)c3ccc(NC(=O)CCN4CCCCC4C)cc3[nH]c2c1 (stereo unspecified) | 2300
CN(C)c1cccc(Nc2c3cc(NC(=O)CCN4CCCC4)ccc3nc3ccc(NC(=O)CCN4CCCC4)cc23)c1 | 600
O=C(CCN1CCCC1)Nc1ccc2nc3ccc(NC(=O)CCN4CCCC4)cc3c(Nc3ccccc3)c2c1 | 1290
O=C(CCN1CCCC1)Nc1ccc2nc3ccc(NC(=O)CCN4CCCC4)cc3c(Nc3ccccc3O)c2c1 | 1030
O=C(CCN1CCC(O)CC1)Nc1ccc2nc3ccc(NC(=O)CCN4CCC(O)CC4)cc3c(O)c2c1 | 2300
CN(C)c1ccc(Nc2c3cc(NC(=O)CCN4CCCC4)ccc3nc3ccc(NC(=O)CCN4CCCC4)cc23)cc1 | 500
COc1ccc(Nc2c3cc(NC(=O)CCN4CCCC4)ccc3nc3ccc(NC(=O)CCN4CCCC4)cc23)cc1 | 460
CN(C)CCNc1c2cc(NC(=O)CCN3CCCC3)ccc2nc2ccc(NC(=O)CCN3CCCC3)cc12 | 570

The next compounds have a lower IC50 than those just listed; values first:

IC50 [nM] | Compound
400 | O=C(CCN1CCCCC1)Nc1ccc2c(O)c3cc(NC(=O)CCN4CCCCC4)ccc3nc2c1
318 | O=C(CCCCC(=O)N1CCCC1)Nc1ccc(Nc2c3ccc(NC(=O)CCN4CCCC4)cc3nc3cc(NC(=O)CCN4CCCC4)ccc23)cc1
270 | CN(C)CCNc1c2ccc(NC(=O)CCN3CCCC3)cc2nc2ccc(NC(=O)CCN3CCCC3)cc12
210 | O=C(CCN1CCCC1)Nc1ccc2c(NC3CCCCC3)c3cc(NC(=O)CCN4CCCC4)ccc3nc2c1
210 | Nc1cccc(Nc2c3ccc(NC(=O)CCN4CCCC4)cc3nc3ccc(NC(=O)CCN4CCCC4)cc23)c1
200 | CC1CCN(CCC(=O)Nc2ccc3c(O)c4cc(NC(=O)CCN5CCC(C)CC5)ccc4nc3c2)CC1
200 | O=C(CCN1CCC(O)CC1)Nc1ccc2c(O)c3cc(NC(=O)CCN4CCC(O)CC4)ccc3nc2c1
200 | Nc1ccc(Nc2c3cc(NC(=O)CCN4CCCC4)ccc3nc3ccc(NC(=O)CCN4CCCC4)cc23)cc1
200 | O=C(CCN1CCCCC1CCO)Nc1ccc2c(=O)c3cc(NC(=O)CCN4CCCCC4CCO)ccc3[nH]c2c1 (stereo unspecified)
170 | CN(C)c1ccc(Nc2c3ccc(NC(=O)CCN4CCCC4)cc3nc3ccc(NC(=O)CCN4CCCC4)cc23)cc1
170 | Nc1ccccc1Nc1c2cc(NC(=O)CCN3CCCC3)ccc2nc2ccc(NC(=O)CCN3CCCC3)cc12
110 | Nc1ccccc1Nc1c2ccc(NC(=O)CCN3CCCC3)cc2nc2ccc(NC(=O)CCN3CCCC3)cc12
100 | CN(C)c1ccc(Nc2c3ccc(NC(=O)CCN4CCCC4)cc3nc3cc(NC(=O)CCN4CCCC4)ccc23)cc1
98 | CCN(CC)CCNC(=O)CCCCC(=O)Nc1ccc(Nc2c3ccc(NC(=O)CCN4CCCC4)cc3nc3cc(NC(=O)CCN4CCCC4)ccc23)cc1
80 | CCN(CC)CCCCCCNC(=O)CCCCC(=O)Nc1ccc(Nc2c3ccc(NC(=O)CCN4CCCC4)cc3nc3cc(NC(=O)CCN4CCCC4)ccc23)cc1
80 | CN(C)CCCNc1c2ccc(NC(=O)CCN3CCCC3)cc2nc2ccc(NC(=O)CCN3CCCC3)cc12
74 | Nc1ccc(Nc2c3ccc(NC(=O)CCN4CCCC4)cc3nc3cc(NC(=O)CCN4CCCC4)ccc23)cc1
